Measurements from patent US10231967B2, “Compounds and their use as BACE inhibitors” (ASTRAZENECA AB, priority 2010, dated 2019).

The compounds below were run on sAPPβ release in SH-SY5Y cells (assay: sAPPβ release assay). Details: Homo sapiens, SH-SY5Y, 17 h, compounds incubated 17 h, MSD detection.
Type: cell-based
Summary of the method: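 SH-SY5Y cells were exposed to compounds at 1% DMSO final for 17 h at 37 °C. Secreted sAPPβ in 20 μL of medium was quantified by MSD electrochemiluminescence immunoassay with 1 nM detection antibody. Cell plates were then used in an ATP assay for cytotoxicity.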

| SMILES | IC50 [nM] |
| --- | --- |
| CCO[C@H]1CC[C@]2(CC1)Cc1ccc(Br)cc1C21N=C(C)C(N)=N1 (stereo partly drawn) [Example 130, (1r,4r)-6′-Bromo-4-ethoxy-5″-methyl-3′H-dispiro[cyclohexane-1,2′-indene-1′,2″-imidazol]-4″-amine] | 148 |
| CCO[C@H]1CC[C@]2(CC1)Cc1ccc(-c3cncc(C(F)(F)F)c3)cc1C21N=C(C)C(N)=N1 (stereo partly drawn) [Example 131] | 24 |
| CCO[C@H]1CC[C@]2(CC1)Cc1ccc(-c3cc(F)cc(C#N)c3)cc1C21N=C(C)C(N)=N1 (stereo partly drawn) [Example 132, 3-[(1r,4r)-4″-amino-4-ethoxy-5″-methyl-3′H-dispiro[cyclohexane-1,2′-indene-1′,2″-imidazol]-6′-yl]-5-fluorobenzonitrile] | 17 |
| CC#Cc1cncc(-c2ccc3c(c2)C2(N=C(C)C(N)=N2)[C@]2(CC[C@H](OCC)CC2)C3)c1 (stereo partly drawn) [Example 135, (1r,4r)-4-Ethoxy-5″-methyl-6′-[5-(prop-1-yn-1-yl)pyridin-3-yl]-3′H-dispiro[cyclohexane-1,2′-indene-1′,2″-imidazol]-4″-amine] | 0.85 |

Same assay, conditions: Homo sapiens, compounds incubated 17 h, MSD detection

| SMILES | IC50 [nM] |
| --- | --- |
| CCO[C@H]1CC[C@]2(CC1)Cc1ccc(-c3cncc(Cl)c3)cc1C21N=C(C)C(N)=N1 (stereo partly drawn) [Example 133, (1r,4r)-6′-(5-chloropyridin-3-yl)-4-ethoxy-5″-methyl-3′H-dispiro[cyclohexane-1,2′-indene-1′,2″-imidazol]-4″-amine] | 5.5 |
| CCO[C@H]1CC[C@]2(CC1)Cc1ccc(-c3cc(C#N)cc(C(F)F)c3)cc1C21N=C(C)C(N)=N1 (stereo partly drawn) [Example 134, 3-[(1r,4r)-4″-Amino-4-ethoxy-5″-methyl-3′H-dispiro[cyclohexane-1,2′-indene-1′,2″-imidazol]-6′-yl]-5-(difluoromethyl)benzonitrile] | 7.7 |
